Assay [1] relates to L1210. Kind of assay: Selectivity index, ratio of IC50 for mouse L1210 cells to IC50 for mouse P815 cells. The assay is classed as functional.
Assay [2] concerns L1210. Kind of assay: Selectivity index, ratio of IC50 for mouse L1210 cells to IC50 for mouse 4T1 cells. It counts as functional.
For assay [3], the system named is P815. The experiment in a line: Cytotoxicity against mouse P815 cells expressing biotin receptor after 72 hrs by MTT assay. It counts as functional, cell-based. To be noted: P815, 72 h. For orientation: Tetrazolium assays rely on reduction of a dye to a coloured formazan, in cell work by metabolically active cells.
Assay [4] relates to 4T1. The experiment in a line: Cytotoxicity against mouse 4T1 cells expressing biotin receptor after 72 hrs by MTT assay. The assay is classed as functional, cell-based. The settings on record: 4T1, 72 h.
Assay [5] concerns L1210. Kind of assay: Cytotoxicity against mouse L1210 cells after 72 hrs by MTT assay. The assay is classed as functional, cell-based. The settings on record: L1210, 72 h.
In assay [6] the test system is P815. The experiment in a line: Ratio of bullatacin IC50 to compound IC50 for mouse P815 cells expressing biotin receptor. It counts as functional.
Assay [7] relates to 4T1. Kind of assay: Ratio of bullatacin IC50 to compound IC50 for mouse 4T1 cells expressing biotin receptor. It counts as functional.
Assay [8] has as its system P815. The experiment in a line: Ratio of squamocin IC50 to compound IC50 for mouse P815 cells expressing biotin receptor. The assay is classed as functional.
Assay [9] has as its system 4T1. The experiment in a line: Ratio of squamocin IC50 to compound IC50 for mouse 4T1 cells expressing biotin receptor. The assay is classed as functional.

A value given as a limit tells only on which side of the number the result lay.

As to `CCCCCCCCCC[C@H](O)[C@H]1CC[C@H]([C@H]2CC[C@H]([C@@H](CCCCCCCCCC[C@@H](O)CC3=C[C@H](C)OC3=O)OC(=O)CCCCCNC(=O)CCCC[C@@H]3SC[C@@H]4NC(=O)N[C@@H]43)O2)O1`, the entries for the “Ratio IC50” value with L1210 [1] and in the assay on L1210 [2] were under 0.092 and 6.1, respectively. The concentration for half-maximal inhibition (IC50) was over 20000 nM in the assay with P815 [3], 300 nM in the assay on 4T1 [4] and 1830 nM in the assay on L1210 [5].
For `CCCCCCCCCC[C@H](O)[C@H]1CC[C@H]([C@H]2CC[C@H]([C@@H](CCCCCCCCCC[C@@H](O)CC3=C[C@H](C)OC3=O)OC(=O)CCCC[C@@H]3SC[C@@H]4NC(=O)N[C@@H]43)O2)O1`, in that order: 0.88, 32.62, 1550 nM, 42 nM and 1370 nM.
The corresponding values for `CCCCCCCCCC[C@H](O)[C@H]1CC[C@H]([C@H]2CC[C@H]([C@H](O)CCCCCCCCCC[C@H](CC3=C[C@H](C)OC3=O)OC(=O)CCCCCNC(=O)CCCC[C@@H]3SC[C@@H]4NC(=O)N[C@@H]43)O2)O1` are 2.39, 39.62, 880 nM, 53 nM and 2100 nM.
Regarding `CCCCCCCCCC[C@H](OC(=O)CCCCCNC(=O)CCCC[C@@H]1SC[C@@H]2NC(=O)N[C@@H]21)[C@H]1CC[C@H]([C@H]2CC[C@H]([C@H](O)CCCCCCCCCC[C@@H](O)CC3=C[C@H](C)OC3=O)O2)O1`, the “Ratio IC50” value came to 8 with P815 [6], 3 in the assay with 4T1 [7], 2.66 with L1210 [1] and 29.46 in the assay on L1210 [2]. Also, the IC50 in the assay on P815 [3] amounted to 410 nM; in the assay on 4T1 [4] it was 37 nM; in the assay with L1210 [5] it was 1090 nM.
For `CCCCCC[C@@H](CCC[C@H](OC(=O)CCCC[C@@H]1SC[C@@H]2NC(=O)N[C@@H]21)[C@H]1CC[C@H]([C@H]2CC[C@H]([C@H](O)CCCCCCCCCCCCC3=C[C@H](C)OC3=O)O2)O1)OC(=O)CCCC[C@@H]1SC[C@@H]2NC(=O)N[C@@H]21`, the “Ratio IC50” value in the assay on L1210 [1] is under 0.28; in the assay with L1210 [2], 19.62. The IC50 in the assay on P815 [3] was over 20000 nM; in the assay on 4T1 [4], 290 nM; in the assay on L1210 [5], 5690 nM.
For `CCCCCC[C@@H](CCC[C@H](O)[C@H]1CC[C@H]([C@H]2CC[C@H]([C@@H](CCCCCCCCCCCCC3=C[C@H](C)OC3=O)OC(=O)CCCC[C@@H]3SC[C@@H]4NC(=O)N[C@@H]43)O2)O1)OC(=O)CCCC[C@@H]1SC[C@@H]2NC(=O)N[C@@H]21`, in that order: under 0.063, 0.26, over 20000 nM, 4870 nM and 1250 nM.
For `CCCCCCCCCC[C@H](O)[C@H]1CC[C@H]([C@H]2CC[C@H]([C@@H](CCCCCCCCCC[C@H](CC3=C[C@H](C)OC3=O)OC(=O)CCCCCNC(=O)CCCC[C@@H]3SC[C@@H]4NC(=O)N[C@@H]43)OC(=O)CCCCCNC(=O)CCCC[C@@H]3SC[C@@H]4NC(=O)N[C@@H]43)O2)O1`, in that order: under 0.1, 1.92, over 20000 nM, 1060 nM and 2040 nM.
For `CCCCCC[C@@H](CCC[C@H](O)[C@H]1CC[C@H]([C@H]2CC[C@H]([C@H](O)CCCCCCCCCCCCC3=C[C@H](C)OC3=O)O2)O1)OC(=O)CCCCCNC(=O)CCCC[C@@H]1SC[C@@H]2NC(=O)N[C@@H]21`, in that order: under 0.034, 0.1, over 20000 nM, 6570 nM and 680 nM.
As to `CCCCCC[C@H](O)CCC[C@H](O)[C@H]1CC[C@H]([C@H]2CC[C@H]([C@@H](CCCCCCCCCCCCC3=C[C@H](C)OC3=O)OC(=O)CCCC[C@@H]3SC[C@@H]4NC(=O)N[C@@H]43)O2)O1`, the “Ratio IC50” value is given as under 0.036 in the assay with L1210 [1] and 0.25 in the assay on L1210 [2]. Moreover, the IC50 in the assay with P815 [3] is over 20000 nM; in the assay with 4T1 [4], 2910 nM; with L1210 [5] it was 720 nM.
Take `CCCCCCCCCC[C@@H](O)[C@@H]1CC[C@@H]([C@@H]2CC[C@@H]([C@H](O)CCCCCCCCCC(O)CC3=CC(C)OC3=O)O2)O1` (some centres undefined) [BULLATACIN]: the “Ratio IC50” value in the assay with L1210 [1] is 0.67; in the assay with L1210 [2] it was 21.09. Moreover, the results for the IC50 with P815 [3], in the assay with 4T1 [4] and in the assay on L1210 [5] were 3480 nM, 110 nM and 2320 nM, respectively.
With `CCCCCC[C@@H](CCC[C@H](O)[C@H]1CC[C@H]([C@H]2CC[C@H]([C@H](O)CCCCCCCCCCCCC3=C[C@H](C)OC3=O)O2)O1)OC(=O)CCCC[C@@H]1SC[C@@H]2NC(=O)N[C@@H]21`, the results for the “Ratio IC50” value in the assay with L1210 [1] and in the assay on L1210 [2] were 0.62 and 16.94, respectively. Further, the figures for the IC50 in the assay on P815 [3], with 4T1 [4] and with L1210 [5] were 1340 nM, 49 nM and 830 nM, respectively.
The corresponding values for `CCCCCCCCCC[C@H](OC(=O)CCCC[C@@H]1SC[C@@H]2NC(=O)N[C@@H]21)[C@H]1CC[C@H]([C@H]2CC[C@H]([C@H](O)CCCCCCCCCC[C@@H](O)CC3=C[C@H](C)OC3=O)O2)O1` are under 0.29, 3.47, over 20000 nM, 1670 nM and 5790 nM.
For `CCCCCC[C@H](O)CCC[C@H](OC(=O)CCCCCNC(=O)CCCC[C@@H]1SC[C@@H]2NC(=O)N[C@@H]21)[C@H]1CC[C@H]([C@H]2CC[C@H]([C@H](O)CCCCCCCCCCCCC3=C[C@H](C)OC3=O)O2)O1`, in that order: under 0.069, 0.9, over 20000 nM, 1540 nM and 1380 nM.
For `CCCCCCCCCC[C@H](O)[C@H]1CC[C@H]([C@H]2CC[C@H]([C@H](O)CCCCCCCCCC[C@H](CC3=C[C@H](C)OC3=O)OC(=O)CCCC[C@@H]3SC[C@@H]4NC(=O)N[C@@H]43)O2)O1`, the “Ratio IC50” value with L1210 [1] is under 0.071; in the assay with L1210 [2], 2.18. Besides, the IC50 in the assay on P815 [3] was over 20000 nM; with 4T1 [4], 650 nM; with L1210 [5], 1420 nM.
On to `CCCCCC[C@H](O)CCC[C@H](OC(=O)CCCC[C@@H]1SC[C@@H]2NC(=O)N[C@@H]21)[C@H]1CC[C@H]([C@H]2CC[C@H]([C@H](O)CCCCCCCCCCCCC3=C[C@H](C)OC3=O)O2)O1`, for which the “Ratio IC50” value was under 0.048 with L1210 [1] and 1.52 with L1210 [2]. Moreover, the IC50 was over 20000 nM in the assay with P815 [3], 630 nM in the assay on 4T1 [4] and 960 nM in the assay on L1210 [5].
For `CCCCCC[C@@H](CCC[C@H](OC(=O)CCCCCNC(=O)CCCC[C@@H]1SC[C@@H]2NC(=O)N[C@@H]21)[C@H]1CC[C@H]([C@H]2CC[C@H]([C@H](O)CCCCCCCCCCCCC3=C[C@H](C)OC3=O)O2)O1)OC(=O)CCCCCNC(=O)CCCC[C@@H]1SC[C@@H]2NC(=O)N[C@@H]21`, in that order: under 0.059, 0.63, over 20000 nM, 1870 nM and 1180 nM.
Regarding `CCCCCC[C@@H](CCC[C@H](O)[C@H]1CC[C@H]([C@H]2CC[C@H]([C@@H](CCCCCCCCCCCCC3=C[C@H](C)OC3=O)OC(=O)CCCCCNC(=O)CCCC[C@@H]3SC[C@@H]4NC(=O)N[C@@H]43)O2)O1)OC(=O)CCCCCNC(=O)CCCC[C@@H]1SC[C@@H]2NC(=O)N[C@@H]21`, the “Ratio IC50” value is recorded as over 26 with P815 [8], over 10 in the assay on 4T1 [9], 1.05 in the assay on L1210 [1] and 22.57 with L1210 [2]. The figures for the half-maximal inhibitory concentration (IC50) in the assay on P815 [3], in the assay with 4T1 [4] and in the assay with L1210 [5] were 750 nM, 35 nM and 790 nM, respectively.
For `CCCCCC[C@H](O)CCC[C@H](O)[C@H]1CC[C@H]([C@H]2CC[C@H]([C@@H](CCCCCCCCCCCCC3=C[C@H](C)OC3=O)OC(=O)CCCCCNC(=O)CCCC[C@@H]3SC[C@@H]4NC(=O)N[C@@H]43)O2)O1`, the “Ratio IC50” value with L1210 [1] turned out to be 0.48; with L1210 [2], 14.94. For the same compound, the 50% inhibitory concentration (IC50) with P815 [3] worked out at 2410 nM; with 4T1 [4], 77 nM; in the assay on L1210 [5], 1150 nM.
For `CCCCCC[C@H](O)CCC[C@H](OC(=O)CCCCCNC(=O)CCCC[C@@H]1SC[C@@H]2NC(=O)N[C@@H]21)[C@H]1CC[C@H]([C@H]2CC[C@H]([C@@H](CCCCCCCCCCCCC3=C[C@H](C)OC3=O)OC(=O)CCCCCNC(=O)CCCC[C@@H]3SC[C@@H]4NC(=O)N[C@@H]43)O2)O1`, the “Ratio IC50” value in the assay with L1210 [1] came to 0.9; with L1210 [2] it was 2.47. Further, the half-maximal inhibitory concentration (IC50) with P815 [3] is 930 nM; with 4T1 [4] it was 340 nM; with L1210 [5], 840 nM.
The corresponding values for `CCCCCCCCCC[C@H](OC(=O)CCCCCNC(=O)CCCC[C@@H]1SC[C@@H]2NC(=O)N[C@@H]21)[C@H]1CC[C@H]([C@H]2CC[C@H]([C@H](O)CCCCCCCCCC[C@H](CC3=C[C@H](C)OC3=O)OC(=O)CCCCCNC(=O)CCCC[C@@H]3SC[C@@H]4NC(=O)N[C@@H]43)O2)O1` are 1.96, 26.73, 750 nM, 55 nM and 1470 nM.

The term IC50 denotes the concentration needed to halve the response being measured. Read a high IC50 as lower potency.

These data come from ChEMBL document CHEMBL3098074, “Synthesis and tumor cell growth inhibitory activity of biotinylated annonaceous acetogenins” (Eur J Med Chem, 2014).
